Experiment [1] deals with T1, rat TRPV1 heterologously expressed in Chinese hamster ovary (CHO) cells (Rattus norvegicus, UniProt O35433). The experiment in a line: binding competition assay with [3H]RTX. The settings on record: respectively; for increase in binding affinity: 19 and 20 compared to (R)-5a and (S)-5a; for increases in binding affinity: 24 and 28 compared to 5b and 5c.
The target in experiment [2] is T1, rat TRPV1 heterologously expressed in Chinese hamster ovary (CHO) cells. The experiment in a line: functional 45Ca2+ uptake assay, antagonism of capsaicin. It is filed as cell-based. The settings on record: 24 and 28 compared to 5b and 5c, respectively.

T1 sequence (O35433 whole entry): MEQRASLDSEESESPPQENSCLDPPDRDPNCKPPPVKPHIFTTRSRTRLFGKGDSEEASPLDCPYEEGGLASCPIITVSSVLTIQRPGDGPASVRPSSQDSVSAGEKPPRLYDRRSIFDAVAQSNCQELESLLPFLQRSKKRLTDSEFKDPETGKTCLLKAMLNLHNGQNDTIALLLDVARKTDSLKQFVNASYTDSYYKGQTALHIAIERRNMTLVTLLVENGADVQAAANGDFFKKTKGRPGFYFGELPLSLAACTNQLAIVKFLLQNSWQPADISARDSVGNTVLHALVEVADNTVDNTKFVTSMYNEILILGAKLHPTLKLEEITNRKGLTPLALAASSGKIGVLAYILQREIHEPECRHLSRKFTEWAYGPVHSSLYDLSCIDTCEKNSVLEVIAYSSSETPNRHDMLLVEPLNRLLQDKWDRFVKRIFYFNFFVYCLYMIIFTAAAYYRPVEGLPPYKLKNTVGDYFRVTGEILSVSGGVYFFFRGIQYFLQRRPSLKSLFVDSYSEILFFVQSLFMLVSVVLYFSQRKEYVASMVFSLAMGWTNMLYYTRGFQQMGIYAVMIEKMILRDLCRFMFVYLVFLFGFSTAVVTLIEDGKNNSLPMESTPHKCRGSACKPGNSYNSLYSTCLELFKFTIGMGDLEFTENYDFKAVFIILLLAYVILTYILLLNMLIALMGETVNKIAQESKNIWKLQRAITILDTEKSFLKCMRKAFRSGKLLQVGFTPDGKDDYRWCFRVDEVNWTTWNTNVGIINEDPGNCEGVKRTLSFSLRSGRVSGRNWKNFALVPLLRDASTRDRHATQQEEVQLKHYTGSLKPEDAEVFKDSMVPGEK

With `C[C@@H](NC(=S)NC[C@H](COC(=O)C(C)(C)C)Cc1ccccc1)c1ccc(NS(C)(=O)=O)cc1` [compound 19], in experiment [1], the “increase in binding affinity” value is reported as about 10 fold.
On the same count and under the same terms, next, `C[C@@H](NC(=S)NC[C@@H](COC(=O)C(C)(C)C)Cc1ccccc1)c1ccc(NS(C)(=O)=O)cc1` [compound 20]: about 10 fold.
On to `Cc1ccc(CC(CNC(=S)N[C@H](C)c2ccc(NS(C)(=O)=O)cc2)COC(=O)C(C)(C)C)cc1C` (stereo partly drawn) [compound 24], for which the “increases in binding affinity” value in experiment [1] worked out at 5 fold. This compound also had an increases in antagonism in experiment [2] of 10 fold.
The matching figures for `C[C@@H](NC(=S)NCC(COC(=O)C(C)(C)C)Cc1ccc(C(C)(C)C)cc1)c1ccc(NS(C)(=O)=O)cc1` (stereo partly drawn) [compound 28]: 6 fold and 4 fold.
